{"source": "patent US7468445B2", "about": "“Antigiardial agents and use thereof” (University of Mississippi, priority 2002, dated 2008)", "data": [{"tested_on": "Giardia lamblia", "assay": "not given", "conditions": "biological evaluation of natural products; formononetin and pseudobaptigenin in vitro; cited from earlier work", "values": [{"compound": "O=c1c(-c2ccc3c(c2)OCO3)coc2cc(O)ccc12", "note": "[pseudobaptigenin]", "antigiardial activity": "potent antigiardial activity"}, {"compound": "COc1ccc(-c2coc3cc(O)ccc3c2=O)cc1", "note": "[formononetin]", "antigiardial activity": "potent antigiardial activity"}, {"compound": "O=c1c(O)c(-c2ccc(O)c(O)c2)oc2cc(O)cc(O)c12", "note": "[quercetin]", "antigiardial activity": "exhibit antigiardial activity"}, {"compound": "geranins A [geranin A]", "antigiardial activity": "exhibit antigiardial activity"}, {"compound": "O=c1c(O)c(-c2ccc(O)cc2)oc2cc(O)cc(O)c12", "note": "[kaempferol]", "antigiardial activity": "exhibit antigiardial activity"}]}, {"tested_on": "not given", "assay": "not given", "conditions": "not given", "values": [{"compound": "O=c1c(-c2ccccc2)coc2cc(O)c(Cl)cc12", "note": "[P(A5,B1), 6-Chloro-7-hydroxy-3-phenylchromen-4-one]", "melting point": "279 to 280 °C"}, {"compound": "O=c1c(-c2ccccc2)coc2cc(O)c(Br)cc12", "note": "[P(A6,B1), 6-Bromo-7-hydroxy-3-phenylchromen-4-one]", "melting point": "296 to 297 °C (dec.)"}, {"compound": "O=c1c(-c2ccccc2)coc2c(Cl)c(O)ccc12", "note": "[P(A2,B1), 8-Chloro-7-hydroxy-3-phenylchromen-4-one]", "melting point": "242 to 244 °C"}, {"compound": "O=c1c(-c2ccccc2)coc2c(Br)c(O)ccc12", "note": "[P(A3,B1), 8-Bromo-7-hydroxy-3-phenylchromen-4-one]", "melting point": "256 to 258 °C"}]}, {"tested_on": "Giardia intestinalis (ATCC #30888)", "assay": "Antigiardial biological screening (XTT tetrazolium dye procedure)", "assay_type": "cell-based", "conditions": "Giardia duodenalis, ATCC30888; concentration that inhibits giardial growth by 50%, estimated graphically; samples at 10, 3.3 and 1.1 μg/mL, 24 h at 37° C., XTT; NA = inactive; read-out: IC50", "method": "(§1) Biological Screening. […] Subculturing was done every 48-72 h under a sterile biosafety hood. Tubes were chilled in an ice bath for 10 min. in order to detach the organisms, and 1 mL of cell suspension was added to 14 mL of fresh medium. To carry out the screening, a suspension of Giardia cells was prepared at a concentration of 100,000 cells/mL. 100 μL of the suspension was then added to each well of a Corning 96-well flat-bottomed tissue culture-treated plate. Blank wells received medium only. An additional 125 μL of medium was added to each well, and the plates were incubated at 37° C. for 24 h in an anaerobic chamber filled with nitrogen. […] The plates were further incubated at 37° C. for 24 h. The plates were then processed using a tetrazolium dye (XTT) procedure. Absorbance readings were taken at 450 nm with background at 630 nm subtracted.", "units": {"IC50": "µg/mL"}, "values": [{"compound": "Cc1ncc([N+](=O)[O-])n1CCO", "note": "[metronidazole, reference compound]", "IC50": 1.5}, {"compound": "O=c1c(-c2ccccc2)coc2cc(O)c(Br)cc12", "note": "[P(A6,B1), 6-Bromo-7-hydroxy-3-phenylchromen-4-one]", "IC50": 5}, {"compound": "O=c1c(-c2ccccc2)coc2c(Cl)c(O)ccc12", "note": "[P(A2,B1), 8-Chloro-7-hydroxy-3-phenylchromen-4-one]", "IC50": 1.7}, {"compound": "O=c1c(-c2ccccc2)coc2c(Br)c(O)ccc12", "note": "[P(A3,B1), 8-Bromo-7-hydroxy-3-phenylchromen-4-one]", "IC50": 1.6}]}, {"tested_on": "Giardia intestinalis (ATCC #30888)", "assay": "Antigiardial biological screening (XTT tetrazolium dye procedure)", "assay_type": "cell-based", "conditions": "concentration that inhibits giardial growth by 50%, estimated graphically; samples at 10, 3.3 and 1.1 μg/mL, 24 h at 37° C., XTT; NA = inactive", "method": "as §1", "units": {"IC50": "µg/mL"}, "values": [{"compound": "O=c1c(-c2cccc(F)c2)coc2cc(O)c(F)cc12", "note": "[P(A4,B28)]", "IC50": 4.3}, {"compound": "COc1ccc(-c2coc3cc(O)c(F)cc3c2=O)cc1", "note": "[P(A4,B11)]", "IC50": ">10.0"}, {"compound": "O=c1c(-c2cc(F)cc(F)c2)coc2cc(O)c(Cl)cc12", "note": "[P(A5,B23)]", "IC50": 6.7}, {"compound": "O=c1c(-c2ccc(F)c(F)c2)coc2c(F)c(O)ccc12", "note": "[P(A1,B22)]", "IC50": "<1.1"}, {"compound": "O=c1c(-c2ccc(Cl)c(Cl)c2)coc2cc(O)c(F)cc12", "note": "[P(A4,B21)]", "IC50": ">10.0"}, {"compound": "CCOc1ccc(-c2coc3c(Br)c(O)ccc3c2=O)cc1", "note": "[P(A3,B10)]", "IC50": 9.3}, {"compound": "Cc1cccc(-c2coc3cc(O)c(Cl)cc3c2=O)c1", "note": "[P(A5,B19)]", "IC50": 2.5}, {"compound": "O=c1c(-c2cccc(F)c2)coc2c(Cl)c(O)ccc12", "note": "[P(A2,B28)]", "IC50": 5.2}, {"compound": "Cc1cccc(-c2coc3c(Cl)c(O)ccc3c2=O)c1", "note": "[P(A2,B19)]", "IC50": ">10.0"}, {"compound": "O=c1c(-c2ccc(F)cc2)coc2c(Br)c(O)ccc12", "note": "[P(A3,B9)]", "IC50": 6.8}, {"compound": "O=c1c(-c2ccc(Br)cc2)coc2cc(O)c(F)cc12", "note": "[P(A4,B17)]", "IC50": 9.0}, {"compound": "O=c1c(-c2ccc(Cl)cc2)coc2c(Cl)c(O)ccc12", "note": "[P(A2,B8)]", "IC50": 4.5}, {"compound": "O=c1c(-c2ccccc2)coc2c(F)c(O)ccc12", "note": "[P(A1,B1)]", "IC50": "<1.1"}, {"compound": "CCOc1ccc(-c2coc3c(Cl)c(O)ccc3c2=O)cc1", "note": "[P(A2,B18)]", "IC50": ">10.0"}, {"compound": "Cc1ccc(-c2coc3c(F)c(O)ccc3c2=O)cc1", "note": "[P(A1,B20)]", "IC50": "<1.1"}, {"compound": "O=c1c(-c2ccc(F)c(F)c2)coc2c(Cl)c(O)ccc12", "note": "[P(A2,B22)]", "IC50": 3.7}, {"compound": "Cc1cccc(-c2coc3c(F)c(O)ccc3c2=O)c1", "note": "[P(A1,B19)]", "IC50": "<1.1"}, {"compound": "O=c1c(-c2ccc(F)c(F)c2)coc2cc(O)c(F)cc12", "note": "[P(A4,B22)]", "IC50": 9.4}, {"compound": "Cc1cccc(-c2coc3c(Br)c(O)ccc3c2=O)c1", "note": "[P(A3,B19)]", "IC50": "<1.1"}, {"compound": "Cc1ccc(-c2coc3cc(O)c(F)cc3c2=O)cc1", "note": "[P(A4,B20)]", "IC50": ">10.0"}, {"compound": "O=c1c(-c2ccccc2)coc2cc(O)c(F)cc12", "note": "[P(A4,B1)]", "IC50": 6.2}, {"compound": "O=c1c(-c2cc(F)cc(F)c2)coc2c(Cl)c(O)ccc12", "note": "[P(A2,B23)]", "IC50": "<1.1"}, {"compound": "O=c1c(-c2ccc(Br)cc2)coc2c(F)c(O)ccc12", "note": "[P(A1,B17)]", "IC50": ">10.0"}, {"compound": "O=c1c(-c2ccc(F)cc2)coc2c(F)c(O)ccc12", "note": "[P(A1,B9)]", "IC50": ">10.0"}, {"compound": "COc1ccc(-c2coc3c(Br)c(O)ccc3c2=O)cc1", "note": "[P(A3,B11)]", "IC50": "<1.1"}, {"compound": "COc1ccc(-c2coc3c(F)c(O)ccc3c2=O)cc1", "note": "[P(A1,B11)]", "IC50": "<1.1"}, {"compound": "Cc1ccc(-c2coc3c(Br)c(O)ccc3c2=O)cc1", "note": "[P(A3,B20)]", "IC50": 3.9}, {"compound": "COc1cccc(-c2coc3c(Cl)c(O)ccc3c2=O)c1", "note": "[P(A2,B29)]", "IC50": 4.8}, {"compound": "O=c1c(-c2cccc(Cl)c2)coc2c(Cl)c(O)ccc12", "note": "[P(A2,B27)]", "IC50": 1.7}, {"compound": "Cc1ccc(-c2coc3cc(O)c(Br)cc3c2=O)cc1", "note": "[P(A6,B20)]", "IC50": ">10.0"}, {"compound": "O=c1c(-c2cccc(F)c2)coc2c(Br)c(O)ccc12", "note": "[P(A3,B28)]", "IC50": "<1.1"}, {"compound": "O=c1c(-c2ccc(Cl)cc2)coc2c(F)c(O)ccc12", "note": "[P(A1,B8)]", "IC50": ">10.0"}, {"compound": "O=c1c(-c2ccc(F)cc2)coc2c(Cl)c(O)ccc12", "note": "[P(A2,B9)]", "IC50": ">10.0"}, {"compound": "O=c1c(-c2ccc(Cl)cc2)coc2cc(O)c(F)cc12", "note": "[P(A4,B8)]", "IC50": 6.4}, {"compound": "O=c1c(-c2ccc(Br)cc2)coc2cc(O)c(Cl)cc12", "note": "[P(A5,B17)]", "IC50": ">10.0"}, {"compound": "O=c1c(-c2ccc(Br)cc2)coc2c(Br)c(O)ccc12", "note": "[P(A3,B17)]", "IC50": ">10.0"}, {"compound": "O=c1c(-c2cccc(Cl)c2)coc2c(F)c(O)ccc12", "note": "[P(A1,B27)]", "IC50": "<1.1"}, {"compound": "O=c1c(-c2cccc(Cl)c2)coc2c(Br)c(O)ccc12", "note": "[P(A3,B27)]", "IC50": 1.9}, {"compound": "O=c1c(-c2ccc(Cl)cc2)coc2c(Br)c(O)ccc12", "note": "[P(A3,B8)]", "IC50": 1.9}, {"compound": "O=c1c(-c2ccc(F)cc2)coc2cc(O)c(F)cc12", "note": "[P(A4,B9)]", "IC50": ">10.0"}, {"compound": "O=c1c(-c2ccc(Cl)c(Cl)c2)coc2cc(O)c(Cl)cc12", "note": "[P(A5,B21)]", "IC50": 9.8}, {"compound": "CCOc1ccc(-c2coc3c(F)c(O)ccc3c2=O)cc1", "note": "[P(A1,B18)]", "IC50": 8.8}, {"compound": "O=c1c(-c2cccc(F)c2)coc2cc(O)c(Br)cc12", "note": "[P(A6,B28)]", "IC50": "<1.1"}, {"compound": "O=c1c(-c2ccc(Br)cc2)coc2c(Cl)c(O)ccc12", "note": "[P(A2,B17)]", "IC50": 5.7}, {"compound": "COc1ccc(-c2coc3c(Cl)c(O)ccc3c2=O)cc1", "note": "[P(A2,B11)]", "IC50": ">10.0"}, {"compound": "O=c1c(-c2cccc(Cl)c2)coc2cc(O)c(Cl)cc12", "note": "[P(A5,B27)]", "IC50": ">10.0"}, {"compound": "O=c1c(-c2cccc(Br)c2)coc2c(Cl)c(O)ccc12", "note": "[P(A2,B26)]", "IC50": "<1.1"}, {"compound": "Cc1cccc(-c2coc3cc(O)c(F)cc3c2=O)c1", "note": "[P(A4,B19)]", "IC50": "<1.1"}, {"compound": "Cc1ccc(-c2coc3c(Cl)c(O)ccc3c2=O)cc1", "note": "[P(A2,B20)]", "IC50": ">10.0"}]}, {"tested_on": "Giardia intestinalis (ATCC #30888)", "assay": "Antigiardial biological screening (XTT tetrazolium dye procedure)", "assay_type": "cell-based", "conditions": "discussion of the IC50 table", "method": "as §1", "values": [{"compound": "Cc1cccc(-c2coc3c(F)c(O)ccc3c2=O)c1", "note": "[P(A1,B19)]", "antigiardial activity/potency in words (SAR discussion)": "enhanced potency"}, {"compound": "Cc1cccc(-c2coc3c(Br)c(O)ccc3c2=O)c1", "note": "[P(A3,B19)]", "antigiardial activity/potency in words (SAR discussion)": "enhanced potency"}, {"compound": "O=c1c(-c2ccc(-c3ccccc3)cc2)coc2cc(O)c(Br)cc12", "note": "[P(A6,B16)]", "antigiardial activity/potency in words (SAR discussion)": "less activity"}, {"compound": "COc1ccc(-c2coc3c(Br)c(O)ccc3c2=O)cc1", "note": "[P(A3,B11)]", "antigiardial activity/potency in words (SAR discussion)": "enhanced potency"}, {"compound": "COc1ccc(-c2coc3c(F)c(O)ccc3c2=O)cc1", "note": "[P(A1,B11)]", "antigiardial activity/potency in words (SAR discussion)": "enhanced potency"}, {"compound": "O=c1c(-c2ccc(-c3ccccc3)cc2)coc2cc(O)c(F)cc12", "note": "[P(A4,B16)]", "antigiardial activity/potency in words (SAR discussion)": "less activity"}, {"compound": "O=c1c(-c2cccc(F)c2)coc2c(Br)c(O)ccc12", "note": "[P(A3,B28)]", "antigiardial activity/potency in words (SAR discussion)": "enhanced potency"}, {"compound": "O=c1c(-c2ccc(-c3ccccc3)cc2)coc2cc(O)c(Cl)cc12", "note": "[P(A5,B16)]", "antigiardial activity/potency in words (SAR discussion)": "less activity"}, {"compound": "O=c1c(-c2ccc(-c3ccccc3)cc2)coc2c(F)c(O)ccc12", "note": "[P(A1,B16)]", "antigiardial activity/potency in words (SAR discussion)": "less activity"}, {"compound": "O=c1c(-c2cccc(F)c2)coc2cc(O)c(Br)cc12", "note": "[P(A6,B28)]", "antigiardial activity/potency in words (SAR discussion)": "enhanced potency"}, {"compound": "Cc1cccc(-c2coc3cc(O)c(F)cc3c2=O)c1", "note": "[P(A4,B19)]", "antigiardial activity/potency in words (SAR discussion)": "enhanced potency"}]}]}
